Results reported in patent publication US10047051B2, “Substituted pyridines and method of use” (AbbVie S.á{acute over (.)}r.l., priority 2015, dated 2018).

Key:
CFTR ΔF508 mutant = target: T1, CFTR ΔF508 mutant (Homo sapiens, UniProt P13569, DEL508-508); test: YFP-halide influx assay for the CFTR-ΔF508 mutation (CFBE41o- cells); type: cell-based; details: forskolin 10.67 μM; for EC50: from (1−F/F0) vs concentration plot
T1 construct: expressed in transfected cells; host or cells: CFBE41o- cells, adenoviral transduction
T1 sequence (P13569 with tags, fused parts or gaps DEL508-508): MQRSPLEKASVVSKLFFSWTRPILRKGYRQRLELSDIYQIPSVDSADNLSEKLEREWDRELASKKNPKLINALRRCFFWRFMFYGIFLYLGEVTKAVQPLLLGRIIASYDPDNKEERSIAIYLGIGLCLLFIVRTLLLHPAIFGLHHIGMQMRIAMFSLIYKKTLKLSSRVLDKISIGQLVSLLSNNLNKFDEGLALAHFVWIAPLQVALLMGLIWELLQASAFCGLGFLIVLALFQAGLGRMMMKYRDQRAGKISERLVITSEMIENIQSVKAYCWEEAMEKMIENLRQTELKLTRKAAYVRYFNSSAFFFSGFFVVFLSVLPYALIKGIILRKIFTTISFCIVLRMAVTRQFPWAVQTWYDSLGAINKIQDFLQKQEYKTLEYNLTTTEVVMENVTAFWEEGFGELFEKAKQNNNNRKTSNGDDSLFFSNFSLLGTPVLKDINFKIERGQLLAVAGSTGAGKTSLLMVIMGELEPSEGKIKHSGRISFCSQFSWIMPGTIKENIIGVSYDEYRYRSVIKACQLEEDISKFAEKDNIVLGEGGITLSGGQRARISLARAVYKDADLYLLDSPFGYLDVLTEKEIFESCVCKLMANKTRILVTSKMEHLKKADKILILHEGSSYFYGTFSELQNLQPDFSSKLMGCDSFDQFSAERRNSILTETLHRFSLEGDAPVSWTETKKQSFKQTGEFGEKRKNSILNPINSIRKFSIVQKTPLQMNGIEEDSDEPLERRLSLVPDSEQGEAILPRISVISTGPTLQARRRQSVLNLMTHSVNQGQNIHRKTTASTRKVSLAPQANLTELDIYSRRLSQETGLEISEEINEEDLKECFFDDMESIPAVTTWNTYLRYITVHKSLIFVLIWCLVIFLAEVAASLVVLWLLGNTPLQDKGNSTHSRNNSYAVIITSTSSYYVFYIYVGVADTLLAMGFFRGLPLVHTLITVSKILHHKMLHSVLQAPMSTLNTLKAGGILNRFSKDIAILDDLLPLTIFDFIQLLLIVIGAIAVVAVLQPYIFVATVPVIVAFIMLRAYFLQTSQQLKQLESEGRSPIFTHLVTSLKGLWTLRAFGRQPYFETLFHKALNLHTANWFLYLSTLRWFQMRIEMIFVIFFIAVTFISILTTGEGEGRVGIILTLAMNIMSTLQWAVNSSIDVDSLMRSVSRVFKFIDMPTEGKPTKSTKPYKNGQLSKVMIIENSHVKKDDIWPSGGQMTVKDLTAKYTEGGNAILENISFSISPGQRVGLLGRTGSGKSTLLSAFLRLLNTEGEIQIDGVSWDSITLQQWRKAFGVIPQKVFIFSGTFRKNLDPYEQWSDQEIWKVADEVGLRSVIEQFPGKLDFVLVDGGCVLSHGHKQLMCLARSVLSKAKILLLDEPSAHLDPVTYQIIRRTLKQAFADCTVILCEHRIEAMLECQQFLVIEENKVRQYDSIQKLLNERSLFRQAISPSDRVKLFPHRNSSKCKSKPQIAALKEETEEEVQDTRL
In short: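 EC50 derived from plotting 1−F/F0 (fluorescence 36 s after iodide injection over pre-injection value) against compound concentration. Cells: CFBE41o- transduced with ΔF508-CFTR and YFP quench reporter, corrected 24 h at 27° C or by a CFTR modulator at 37° C.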

CFTR G551D mutant = target: T2, CFTR G551D mutant (Homo sapiens, UniProt P13569, G551D); test: YFP-halide influx assay for the CFTR-G551D mutation (HEK293 cells); type: cell-based; details: forskolin 10.67 μM
T2 construct: expressed in transfected cells; host or cells: HEK293 cells, reverse transfection with plasmids
T2 sequence (P13569 whole entry G551D): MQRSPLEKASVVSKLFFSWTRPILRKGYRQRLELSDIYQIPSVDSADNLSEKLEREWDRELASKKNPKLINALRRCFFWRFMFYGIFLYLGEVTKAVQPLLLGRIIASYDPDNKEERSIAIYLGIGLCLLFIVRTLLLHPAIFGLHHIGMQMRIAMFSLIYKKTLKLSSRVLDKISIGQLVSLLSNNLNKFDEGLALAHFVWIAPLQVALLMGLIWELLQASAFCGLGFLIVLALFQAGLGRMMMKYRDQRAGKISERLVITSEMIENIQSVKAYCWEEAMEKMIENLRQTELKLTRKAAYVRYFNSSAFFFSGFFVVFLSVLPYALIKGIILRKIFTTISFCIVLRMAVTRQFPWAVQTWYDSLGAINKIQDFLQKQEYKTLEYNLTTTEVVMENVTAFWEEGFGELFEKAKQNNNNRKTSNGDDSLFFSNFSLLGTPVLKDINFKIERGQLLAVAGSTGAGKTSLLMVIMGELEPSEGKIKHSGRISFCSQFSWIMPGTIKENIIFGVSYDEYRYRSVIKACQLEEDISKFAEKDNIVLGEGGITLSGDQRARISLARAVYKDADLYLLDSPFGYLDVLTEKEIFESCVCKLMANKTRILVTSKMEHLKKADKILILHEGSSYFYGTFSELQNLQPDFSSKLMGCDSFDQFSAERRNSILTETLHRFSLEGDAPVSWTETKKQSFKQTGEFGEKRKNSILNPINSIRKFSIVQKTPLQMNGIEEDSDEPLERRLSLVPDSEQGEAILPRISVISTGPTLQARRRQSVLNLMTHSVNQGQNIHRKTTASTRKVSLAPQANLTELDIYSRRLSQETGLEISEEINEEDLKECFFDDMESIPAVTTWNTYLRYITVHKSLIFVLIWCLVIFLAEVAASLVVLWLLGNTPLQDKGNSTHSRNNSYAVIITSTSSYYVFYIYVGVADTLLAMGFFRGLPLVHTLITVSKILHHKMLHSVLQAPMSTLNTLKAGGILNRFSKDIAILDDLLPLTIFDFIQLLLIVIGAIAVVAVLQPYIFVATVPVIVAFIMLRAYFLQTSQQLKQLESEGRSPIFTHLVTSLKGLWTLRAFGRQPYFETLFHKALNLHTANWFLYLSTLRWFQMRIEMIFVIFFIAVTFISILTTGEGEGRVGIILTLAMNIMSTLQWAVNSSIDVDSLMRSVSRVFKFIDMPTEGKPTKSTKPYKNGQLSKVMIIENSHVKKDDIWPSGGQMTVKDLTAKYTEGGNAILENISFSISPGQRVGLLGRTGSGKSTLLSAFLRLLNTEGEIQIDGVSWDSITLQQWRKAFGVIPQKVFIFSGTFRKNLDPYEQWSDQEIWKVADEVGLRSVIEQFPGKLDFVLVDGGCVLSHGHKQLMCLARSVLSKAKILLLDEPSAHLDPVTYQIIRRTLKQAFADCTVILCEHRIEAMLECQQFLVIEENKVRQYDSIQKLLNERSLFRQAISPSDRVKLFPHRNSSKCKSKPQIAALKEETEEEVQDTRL
In short: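 Channel opening read as I⁻-driven quenching of a YFP H148Q/I152L/F47L reporter over 7 s post-injection, expressed as 1−F/F0 and fitted against concentration for EC50. Cells were HEK293 co-transfected at seeding with G551D CFTR plus reporter, then grown 24 h at 37 °C, 5% CO2.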

% Activation (CFTR ΔF508 mutant) [%] | EC50 (CFTR ΔF508 mutant) [nM] | % Activation (CFTR G551D mutant) [%] | EC50 (CFTR G551D mutant) [nM] | Structure (SMILES)
111.5 | 8.3 | 99.0 | 639 | CC(C)OC[C@@H](O)CNC(=O)c1ncc(S(=O)(=O)c2ccc(C(F)(F)F)cc2)cc1N [Compound 243, 3-amino-N-[(2S)-2-hydroxy-3-(propan-2-yloxy)propyl]-5-{[4-(trifluoromethyl)phenyl]sulfonyl}pyridine-2-carboxamide]
111.3 | 2.9 | 69.4 | 1120 | CC1CC(C)CN(S(=O)(=O)c2cnc(C(=O)NCC(O)C(F)(F)F)c(N)c2)C1 (stereo not shown) [Compound 185, 3-amino-5-[(3,5-dimethylpiperidin-1-yl)sulfonyl]-N-(3,3,3-trifluoro-2-hydroxypropyl)pyridine-2-carboxamide]
119.0 | 9.9 | 108.0 | 517 | Nc1cc(S(=O)(=O)c2ccc(C(F)(F)F)cc2)c(C2CC2)nc1C(=O)NCCO [Compound 258, 3-amino-6-cyclopropyl-N-(2-hydroxyethyl)-5-{[4-(trifluoromethyl)phenyl]sulfonyl}pyridine-2-carboxamide]
90.6 | 19.8 | 61.4 | 1330 | C[C@H]1CCCN1S(=O)(=O)c1cnc(C(=O)NCC(O)C(F)(F)F)c(N)c1 (stereo partly drawn) [Compound 181, 3-amino-5-{[(2S)-2-methylpyrrolidin-1-yl]sulfonyl}-N-(3,3,3-trifluoro-2-hydroxypropyl)pyridine-2-carboxamide]
103.7 | 20.8 | 42.0 | 1130 | Nc1cc(S(=O)(=O)N2CCCC(F)(F)C2)cnc1C(=O)NCC(O)C(F)(F)F (stereo not shown) [Compound 183, 3-amino-5-[(3,3-difluoropiperidin-1-yl)sulfonyl]-N-(3,3,3-trifluoro-2-hydroxypropyl)pyridine-2-carboxamide]
98.6 | 47.1 | 47.8 | 1140 | Nc1cc(S(=O)(=O)c2ccc(C(F)(F)F)cc2)cnc1C(=O)N[C@@H]1COCC[C@@H]1O (racemic) [Compound 216, rac-3-amino-N-[(3R,4S)-4-hydroxytetrahydro-2H-pyran-3-yl]-5-{[4-(trifluoromethyl)phenyl]sulfonyl}pyridine-2-carboxamide]
95.7 | 32.7 | 62.3 | 1780 | Nc1cc(S(=O)(=O)N2CCCC(F)C2)cnc1C(=O)NCC(O)C(F)(F)F (stereo not shown) [Compound 194, 3-amino-5-[(3-fluoropiperidin-1-yl)sulfonyl]-N-(3,3,3-trifluoro-2-hydroxypropyl)pyridine-2-carboxamide]
103.7 | 8.7 | 86.4 | 991 | CC(C)COCC(O)CNC(=O)c1ncc(S(=O)(=O)c2ccc(OC(F)(F)F)cc2F)cc1N (stereo not shown) [Compound 171, 3-amino-5-{[2-fluoro-4-(trifluoromethoxy)phenyl]sulfonyl}-N-[2-hydroxy-3-(2-methylpropoxy)propyl]pyridine-2-carboxamide]
93.3 | 5.1 | 96.5 | 2620 | C[C@H](O)CNC(=O)c1nc(N(C)C)c(S(=O)(=O)c2ccc(OC(F)(F)F)cc2)cc1N [Compound 283, 3-amino-6-(dimethylamino)-N-[(2S)-2-hydroxypropyl]-5-{[4-(trifluoromethoxy)phenyl]sulfonyl}pyridine-2-carboxamide]
8.9 | > 1000 | 5.5 | > 1000 | C[C@H](O)CNC(=O)c1nc(-c2ccc(F)cc2)c(S(=O)(=O)CCO)cc1N [Compound 262, 3-amino-6-(4-fluorophenyl)-5-[(2-hydroxyethyl)sulfonyl]-N-[(2S)-2-hydroxypropyl]pyridine-2-carboxamide]
106.5 | 9.9 | 69.5 | 546 | CC(C)Oc1ccc(S(=O)(=O)c2cnc(C(=O)NCC(O)C(F)(F)F)c(N)c2)cc1 (stereo not shown) [Compound 237, 3-amino-5-{[4-(propan-2-yloxy)phenyl]sulfonyl}-N-(3,3,3-trifluoro-2-hydroxypropyl)pyridine-2-carboxamide]
116.7 | 42.9 | 59.5 | 2340 | Nc1cc(S(=O)(=O)NC[C@H]2CCOC2)cnc1C(=O)NCC(O)C(F)(F)F (stereo partly drawn) [Compound 200, 3-amino-5-{[(3R)-tetrahydrofuran-3-ylmethyl]sulfamoyl}-N-(3,3,3-trifluoro-2-hydroxypropyl)pyridine-2-carboxamide]
95.8 | 29.5 | 76.5 | 1050 | COCC(O)CNC(=O)c1ncc(S(=O)(=O)c2ccc(C(F)(F)F)cc2)cc1N (stereo not shown) [Compound 239, 3-amino-N-(2-hydroxy-3-methoxypropyl)-5-{[4-(trifluoromethyl)phenyl]sulfonyl}pyridine-2-carboxamide]

Further lines, the molecule ahead of its results:

Structure (SMILES) | % Activation (CFTR ΔF508 mutant) [%] | EC50 (CFTR ΔF508 mutant) [nM] | % Activation (CFTR G551D mutant) [%] | EC50 (CFTR G551D mutant) [nM]
Nc1cc(S(=O)(=O)c2ccc(OC(F)(F)F)cc2F)cnc1C(=O)NCC(O)COCC1CC1 (stereo not shown) [Compound 169, 3-amino-N-[3-(cyclopropylmethoxy)-2-hydroxypropyl]-5-{[2-fluoro-4-(trifluoromethoxy)phenyl]sulfonyl}pyridine-2-carboxamide] | 95.5 | 13.8 | 81.3 | 1120
Nc1cc(S(=O)(=O)c2ccc(C(F)(F)F)cc2F)cnc1C(=O)NCC(O)COCC1CC1 (stereo not shown) [Compound 132, 3-amino-N-[3-(cyclopropylmethoxy)-2-hydroxypropyl]-5-{[2-fluoro-4-(trifluoromethyl)phenyl]sulfonyl}pyridine-2-carboxamide] | 103.5 | 5.1 | 79.2 | 395
CC1(C)CN(C(=O)c2ncc(S(=O)(=O)c3ccc(C(F)(F)F)cc3F)cc2N)C1 [Compound 111, (3-amino-5-{[2-fluoro-4-(trifluoromethyl)phenyl]sulfonyl}pyridin-2-yl)(3,3-dimethylazetidin-1-yl)methanone] | 103.2 | 22.6 | 99.2 | 851
CC(C)C(CO)NC(=O)c1ncc(S(=O)(=O)c2ccc(OC(F)(F)F)cc2)cc1N (stereo not shown) [Compound 13, 3-amino-N-(1-hydroxy-3-methylbutan-2-yl)-5-{[4-(trifluoromethoxy)phenyl]sulfonyl}pyridine-2-carboxamide] | 101.0 | 39.9 | 21.3 | > 10000
CC1(O)CN(C(=O)c2ncc(S(=O)(=O)c3ccc(OC(F)(F)F)cc3)cc2N)C1 [Compound 89, (3-amino-5-{[4-(trifluoromethoxy)phenyl]sulfonyl}pyridin-2-yl)(3-hydroxy-3-methylazetidin-1-yl)methanone] | 99.6 | 6.9 | 53.6 | > 3330
CC1CN(C(=O)c2ncc(S(=O)(=O)c3ccc(OC(F)(F)F)cc3)cc2N)C1 [Compound 126, (3-amino-5-{[4-(trifluoromethoxy)phenyl]sulfonyl}pyridin-2-yl)(3-methylazetidin-1-yl)methanone] | 92.9 | 64.9 | 62.2 | 1470
CC(C)(O)CNC(=O)c1ncc(S(=O)(=O)c2ccc(F)cc2)cc1N [Compound 10, 3-amino-5-[(4-fluorophenyl)sulfonyl]-N-(2-hydroxy-2-methylpropyl)pyridine-2-carboxamide] | 106.4 | 148 | 52.2 | > 3330
CC(C)NC(=O)CNC(=O)c1ncc(S(=O)(=O)c2ccc(C(F)(F)F)cc2)cc1N [Compound 104, 3-amino-N-[2-oxo-2-(propan-2-ylamino)ethyl]-5-{[4-(trifluoromethyl)phenyl]sulfonyl}pyridine-2-carboxamide] | 100.8 | 18.9 | 26.1 | > 10000
CC(C)(O)CNC(=O)c1ncc(S(=O)(=O)c2cccc(F)c2)cc1N [Compound 39, 3-amino-5-[(3-fluorophenyl)sulfonyl]-N-(2-hydroxy-2-methylpropyl)pyridine-2-carboxamide] | 42.5 | 155 | 5.0 | > 10000
Nc1cc(S(=O)(=O)c2ccc(OC(F)(F)F)cc2)cnc1C(=O)NC1COC1 [Compound 151, 3-amino-N-(oxetan-3-yl)-5-{[4-(trifluoromethoxy)phenyl]sulfonyl}pyridine-2-carboxamide] | 16.9 | > 1000 | 3.0 | > 5000
Nc1cc(S(=O)(=O)c2ccc(F)cc2)cnc1C(=O)NCC1(O)CC1 [Compound 30, 3-amino-5-[(4-fluorophenyl)sulfonyl]-N-[(1-hydroxycyclopropyl)methyl]pyridine-2-carboxamide] | 94.6 | 53.7 | 36.4 | 5770
Nc1cc(S(=O)(=O)c2ccc(OC(F)(F)F)cc2F)cnc1C(=O)NC[C@H]1CCOC1 [Compound 115, 3-amino-5-{[2-fluoro-4-(trifluoromethoxy)phenyl]sulfonyl}-N-[(3R)-tetrahydrofuran-3-ylmethyl]pyridine-2-carboxamide] | 102.3 | 34.9 | 40.6 | 900
